Laboratory results from patent US20260347364A1, “PYRAZOLO[4,3-F]QUINAZOLINE DERIVATIVES AS MODULATORS OF G12D MUTANT KRAS USEFUL FOR THE TREATMENT OF CANCER” (JAZZ PHARMACEUTICALS IRELAND LTD., priority 2023, published 2026).

Experiments:
KRAS G12D = molecular target: T1, KRAS G12D (Homo sapiens, UniProt P01116, G12D); assay: HTRF nucleotide exchange assay, KRAS G12D; assay type: biochemical; conditions: class symbols; for IC50: HTRF nucleotide exchange assay (NEA)
T1 construct: aa1-188 KRAS WT, HRAS WT, NRAS WT, or KRAS containing the G12D
Method: (§1) HTRF Nucleotide Exchange Assay Method
(§2) The capacity of compounds to bind KRAS G12D, other KRAS mutants and wildtype RAS isoforms was quantified using a HTRF nucleotide exchange assay. Recombinant human RAS protein (2 nM; aa1-188 KRAS WT, HRAS WT, NRAS WT, or KRAS containing the G12D, G13D or Q61H amino acid substitutions, or 4 nM KRAS; aa1-188 containing the G12V, G12C, G12A or G12S amino acid substitution, an N-terminal 6× His-tag and leader sequence), and 2 nM Europium-labeled anti-6× His antibody were mixed in assay buffer (10 mM HEPES pH 7.3, 150 mM NaCl, 5 mM MgCl2, 0.05% BSA, 0.0025% NP-40 and 100 mM KF) with various concentrations of compound in a 384-well plate and a volume of 5 μL. After a 60-minute incubation at room temperature, 5 μl of 200 nM EDA-GTP-DY647P1 (diluted in assay buffer) was added to the plate. Following 30-minute incubation at room temperature, time-resolved fluorescence was measured on a PerkinElmer Envision plate reader. DMSO (0.3%) and unlabeled GDP (1 μM) or equivalent tool compound were used to generate the Max and Min assay signals, respectively. Data was analysed using a four-parameter logistic model to calculate IC50 values, with at least two independent replicates were performed for each compound. The results are presented as IC50s in Table 29 where “A” corresponds to an IC50 ≤10 nM, “B” to an IC50 >10 nM up to 100 nM, “C” is >100 nM up to 10 μM, “D” represents <49% inhibition at 10 μM and ND=not determined: […]

KRAS WT = molecular target: T2, KRAS WT (Homo sapiens, UniProt P01116); assay: HTRF nucleotide exchange assay, KRAS WT; assay type: biochemical; conditions: class symbols; for IC50: HTRF nucleotide exchange assay (NEA)
T2 construct: aa1-188 KRAS WT
Method: as §1, §2

IC50 (KRAS G12D) [nM] | IC50 (KRAS WT) [nM] | KRAS^WT NEA (KRAS WT) | KRAS^G12D NEA (KRAS G12D) | Compound
100 to 10000 | 100 to 10000 |  |  | CCc1c(F)ccc2cc(O)cc(-c3cc4nc(O[C@@H](C)[C@@H]5CCCN5C)nc(N5CCCn6nc(C(=O)N(C)C)cc6C5)c4c4cn(C)nc34)c12 (racemic) [Example 54, 5-[4-(8-ethyl-7-fluoro-3-hydroxy-1-naphthyl)-2-methyl-7-[rac-(1S)-1-[rac-(2S)-1-methylpyrrolidin-2-yl]ethoxy]pyrazolo[4,3-f]quinazolin-9-yl]-N,N-dimethyl-4,6,7,8-tetrahydropyrazolo[1,5-a][1,4]diazepine-2-carboxamide]
≤ 10 | ≤ 10 |  |  | CCc1c(F)ccc2cc(O)cc(-c3c(C)c4nc(OC[C@@]56CCCN5C[C@H](F)C6)nc(N5CCCn6nc(C(=O)N(C)C)nc6C5)c4c4cn(C)nc34)c12 (racemic) [Example 198, 8-[4-(8-ethyl-7-fluoro-3-hydroxy-1-naphthyl)-2,5-dimethyl-7-[[rac-(2R,8S)-2-fluoro-1,2,3,5,6,7-hexahydropyrrolizin-8-yl]methoxy]pyrazolo[4,3-f]quinazolin-9-yl]-N,N-dimethyl-5,6,7,9-tetrahydro-[1,2,4]triazolo[1,5-a][1,4]diazepine-2-carboxamide]
≤ 10 | ≤ 10 |  |  | CCc1c(F)ccc2cc(O)cc(-c3c(F)c4nc(OCC5(CN6C[C@@H]7C[C@H]6CO7)CC5)nc(N5CCOCC(C)(O)C5)c4c4cn(C)nc34)c12 (mixture of isomers) [Example 226, 4-[4-(8-ethyl-7-fluoro-3-hydroxy-1-naphthyl)-5-fluoro-2-methyl-7-[[1-[[rac-(1S,4S)-2-oxa-5-azabicyclo[2.2.1]heptan-5-yl]methyl]cyclopropyl]methoxy]pyrazolo[4,3-f]quinazolin-9-yl]-6-methyl-1,4-oxazepan-6-ol]
≤ 10 | 10 to 100 |  |  | C#Cc1c(F)ccc2cc(O)cc(-c3cc4nc(OC[C@@]56CCCN5C[C@H](F)C6)nc(N5CCCNCC5)c4c4cn(C)nc34)c12 (single isomer, unassigned) [Example 36]
 |  | D (<49% inhibition at 10 μM) | D (<49% inhibition at 10 μM) | Cn1cc2c(n1)c(-c1c(O)cccc1F)cc1nc(OC[C@@]34CCCN3C[C@H](F)C4)nc(N3CCCOCC3)c12 [Example 4, 3-fluoro-2-[2-methyl-9-(1,4-oxazepan-4-yl)-7-[[(2R,8S)-2-fluoro-1,2,3,5,6,7-hexahydropyrrolizin-8-yl]methoxy]pyrazolo[4,3-f]quinazolin-4-yl]phenol]
100 to 10000 |  | D (<49% inhibition at 10 μM) |  | Cn1cc2c(n1)c(-c1cc(O)ccc1F)cc1nc(OC[C@@]34CCCN3C[C@H](F)C4)nc(N3CCCOCC3)c12 [Example 5]
≤ 10 | ≤ 10 |  |  | CCc1c(F)ccc2cc(O)cc(-c3cc4nc(OC[C@@]56CCCN5C[C@H](F)C6)nc(N5CCOCC(C)(O)C5)c4c4cn(C)nc34)c12 (stereo partly drawn) [Example 8, 4-[4-(8-ethyl-7-fluoro-3-hydroxy-1-naphthyl)-2-methyl-7-[[(2R,8S)-2-fluoro-1,2,3,5,6,7-hexahydropyrrolizin-8-yl]methoxy]pyrazolo[4,3-f]quinazolin-9-yl]-6-methyl-1,4-oxazepan-6-ol]
≤ 10 | ≤ 10 |  |  | CCc1c(F)ccc2cc(O)cc(-c3cc4nc(OC[C@@]56CCCN5C[C@H](F)C6)nc(N5CCCCC(C)(O)C5)c4c4cn(C)nc34)c12 (stereo partly drawn) [Example 10, 1-[4-(8-ethyl-7-fluoro-3-hydroxy-1-naphthyl)-2-methyl-7-[[(2R,8S)-2-fluoro-1,2,3,5,6,7-hexahydropyrrolizin-8-yl]methoxy]pyrazolo[4,3-f]quinazolin-9-yl]-3-methyl-azepan-3-ol]
≤ 10 |  |  |  | CCc1c(F)ccc2cc(O)cc(-c3c(F)c4nc(OCC5(CN6CC(O)C(F)(F)C6)CC5)nc(N5CCOCC(C)(O)C5)c4c4cn(C)nc34)c12 (centres unmarked) [Example 237, 4-[7-[[1-[(3,3-difluoro-4-hydroxy-pyrrolidin-1-yl)methyl]cyclopropyl]methoxy]-4-(8-ethyl-7-fluoro-3-hydroxy-1-naphthyl)-5-fluoro-2-methyl-pyrazolo[4,3-f]quinazolin-9-yl]-6-methyl-1,4-oxazepan-6-ol]

Further lines, the compound ahead of its results:

Compound | IC50 (KRAS G12D) [nM] | IC50 (KRAS WT) [nM] | KRAS^WT NEA (KRAS WT) | KRAS^G12D NEA (KRAS G12D)
CCc1c(F)ccc2cc(O)cc(-c3c(C)c4nc(OC[C@]5(C)CCCN5)nc(N5CCC[C@@](C)(O)C5)c4c4cn(C)nc34)c12 (mixture of isomers) [Example 211, (3R)-1-[4-(8-ethyl-7-fluoro-3-hydroxy-1-naphthyl)-2,5-dimethyl-7-[[rac-(2S)-2-methylpyrrolidin-2-yl]methoxy]pyrazolo[4,3-f]quinazolin-9-yl]-3-methyl-piperidin-3-ol] | ≤ 10 | ≤ 10 |  | 
CN(C)C(=O)c1cc2n(n1)CCCN(c1nc(OC[C@@]34CCCN3C[C@H](F)C4)nc3cc(-c4cc(O)ccc4C(F)(F)F)c4nn(C)cc4c13)C2 (racemic) [Example 64, 5-[4-[5-hydroxy-2-(trifluoromethyl)phenyl]-2-methyl-7-[[rac-(2R,8S)-2-fluoro-1,2,3,5,6,7-hexahydropyrrolizin-8-yl]methoxy]pyrazolo[4,3-f]quinazolin-9-yl]-N,N-dimethyl-4,6,7,8-tetrahydropyrazolo[1,5-a][1,4]diazepine-2-carboxamide] | 10 to 100 | 100 to 10000 |  | 
CCc1c(F)ccc2cc(O)cc(-c3cc4nc(OCC5(C)C[C@@H](O)CN5C)nc(N5CCCn6nc(C(=O)N(C)C)cc6C5)c4c4cn(C)nc34)c12 (mixture of isomers) [Example 68, 5-[4-(8-ethyl-7-fluoro-3-hydroxy-1-naphthyl)-2-methyl-7-[rac-(4R)-4-hydroxy-1,2-dimethyl-pyrrolidin-2-yl]methoxy]pyrazolo[4,3-f]quinazolin-9-yl]-N,N-dimethyl-4,6,7,8-tetrahydropyrazolo[1,5-a][1,4]diazepine-2-carboxamide] | ≤ 10 | ≤ 10 |  | 
CCc1c(F)ccc2cc(O)cc(-c3cc4nc(OC[C@@]56CCCN5C[C@H](F)C6)nc(N5CCC(O)C5)c4c4cn(C)nc34)c12 (mixture of isomers) [Example 117, 1-[4-(8-ethyl-7-fluoro-3-hydroxy-1-naphthyl)-2-methyl-7-[[rac-(2R,8S)-2-fluoro-1,2,3,5,6,7-hexahydropyrrolizin-8-yl]methoxy]pyrazolo[4,3-f]quinazolin-9-yl]pyrrolidin-3-ol] | ≤ 10 | ≤ 10 |  | 
CCc1c(F)ccc2cc(O)cc(-c3c(F)c4nc(OCC5(C)C[C@@H](O)CN5C)nc(N5CCOCC(C)(O)C5)c4c4cn(C)nc34)c12 (mixture of isomers) [Example 153, 4-[4-(8-ethyl-7-fluoro-3-hydroxy-1-naphthyl)-5-fluoro-2-methyl-7-[[rac-(4R)-4-hydroxy-1,2-dimethyl-pyrrolidin-2-yl]methoxy]pyrazolo[4,3-f]quinazolin-9-yl]-6-methyl-1,4-oxazepan-6-ol] | ≤ 10 | ≤ 10 |  | 
C#Cc1c(F)ccc2cc(O)cc(-c3cc4nc(OC[C@@]56CCCN5C[C@H](F)C6)nc(N5CCCNCC5)c4c4cn(C)nc34)c12 (single isomer, unassigned) [Example 35] | 100 to 10000 |  | D (<49% inhibition at 10 μM) | 
Cn1cc2c(n1)c(-c1cccc3sc(N)c(C#N)c13)cc1nc(OC[C@@]34CCCN3C[C@H](F)C4)nc(N3CCCOCC3)c12 [Example 3, 2-amino-4-[2-methyl-9-(1,4-oxazepan-4-yl)-7-[[(2R,8S)-2-fluoro-1,2,3,5,6,7-hexahydropyrrolizin-8-yl]methoxy]pyrazolo[4,3-f]quinazolin-4-yl]benzothiophene-3-carbonitrile] |  | 100 to 10000 |  | D (<49% inhibition at 10 μM)
CCc1c(F)ccc2cc(O)cc(-c3cc4nc(OCC56CCCN5CCC6)nc(N5CCCOCC5)c4c4cn(C)nc34)c12 [Example 6, 5-ethyl-6-fluoro-4-[7-(1,2,3,5,6,7-hexahydropyrrolizin-8-ylmethoxy)-2-methyl-9-(1,4-oxazepan-4-yl)pyrazolo[4,3-f]quinazolin-4-yl]naphthalen-2-ol] | ≤ 10 | ≤ 10 |  | 
CCc1c(F)ccc2cc(O)cc(-c3c(F)c4nc(OC[C@@H]5CCN5C)nc(N5CCC[C@@](C)(O)C5)c4c4cn(C)nc34)c12 [Example 239, (3R)-1-[4-(8-ethyl-7-fluoro-3-hydroxy-1-naphthyl)-5-fluoro-2-methyl-7-[[(2S)-1-methylazetidin-2-yl]methoxy]pyrazolo[4,3-f]quinazolin-9-yl]-3-methyl-piperidin-3-ol] | ≤ 10 |  |  | 
CCc1c(F)ccc2cc(O)cc(-c3c(C)c4nc(OCC5(CF)COC5)nc(N5CC6CCC(C5)N6)c4c4cn(C)nc34)c12 [Example 247, 4-[9-(3,8-diazabicyclo[3.2.1]octan-3-yl)-7-[[3-(fluoromethyl)oxetan-3-yl]methoxy]-2,5-dimethyl-pyrazolo[4,3-f]quinazolin-4-yl]-5-ethyl-6-fluoro-naphthalen-2-ol] | ≤ 10 |  |  | 
